≈ marks a conversion by molar mass, not a printed value. Where two headings read alike, the source gives them in different places.
Assays:
[1] = test system: Staphylococcus aureus (ATCC 6538P); assay: Antibacterial assay (MIC), Staphylococcus aureus ATCC 6538P, Luria Broth, Example 1; type: cell-based; details: for MIC: Staphylococcus aureus, ATCC6538P, read-out: Sa (minimum inhibitory concentration)
Protocol: (§1) Antibacterial Assay Method for Staphylococcus aureus (ATCC 6538P) and Enterococcus faecium
Staphylococcus aureus (ATCC 6538P)
(§2) Compounds are accurately weighed out (between approx. 1-2 mg) and dissolved in either 10% methanol/water (v/v) or 100% DMSO to a final stock concentration of 5 mg/ml.
(§3) Compounds are then diluted 1/10 in H2O to a test conc of 500 ug/ml ready for immediate use, or storage at −20° C.
(§4) Grow up an o/n starter culture of Staphylococcus aureus and each VRE strain by diluting previous culture (stored at 4° C.) 1/1000 into −50 mls Luria Broth (LB) for S. aureus or Enterococossel Broth (EB) for the VRE strains.
(§5) Incubate o/n at 37° C.+shaking. • A glycerol stock (0.6 mls bacterial culture, 0.3 mls glycerol) of each strain is kept at −80° C. if needed. Assay Set Up:
(§6) In a 96well round bottom plate add 50 ul LB/well for the S. aureus plate and add 50 ul EB/well for the VRE plates.
(§7) Add 50 ul of compound dilution (500 ug/ml test conc) to each of three top row wells (ie: tested in triplicate) and dilute 1 in 2 from the top row to the bottom row.
(§8) After the compound dilution, add to each well 50 ul of a 1/1000 dilution of the appropriate overnight bacterial culture, either S. aureus or the different VRE strains.
(§9) Plates are incubated at 37° C. on a slowly rotating plate incubator. • test concentrations are (in ug/ml) 125, 62.5, 31.25, 15.6, 7.8, 3.9, 1.9, 0.98 • final DMSO concentration in the first row of wells of the assay is 2.5% • Vancomycin is included in the assay (in triplicate) at a starting test concentration of 5 ug/ml for S. aureus and 125 ug/ml for the VRE strains Reading Results of Assay:
(§10) After incubation for 24 hrs the plates are removed and read. Inhibition of bacterial growth is indicated by lack of bacterial pellet or a clear well. In the VRE plates bacterial growth is indicated by black coloured media (EB) as well as a bacterial pellet.
(§11) Untreated control wells are included in the assay to check they all contain bacterial pellets. Uninoculated untreated control wells are included to check they all contain clear medium.
(§12) The plates are analysed for MIC and the results tabulated.

[2] = test system: #243 E. faecium van B ST17; assay: Antibacterial assay (MIC), VRE strain #243, Enterococossel Broth, Example 1; type: cell-based, Enterococcus faecium; details: for MIC: Enterococcus faecium, read-out: 243 (minimum inhibitory concentration)
Protocol: as §1
(§13) VRE strains: #243 E. faecium van B ST17 #449 E. faecium van B ST17
as §2, §3, §4, §5, §6, §7, §8, §9, §10, §11, §12

[3] = test system: #449 E. faecium van B ST17; assay: Antibacterial assay (MIC), VRE strain #449, Enterococossel Broth, Example 1; type: cell-based, Enterococcus faecium; details: for MIC: Enterococcus faecium, read-out: 449 (minimum inhibitory concentration)
Protocol: as §1, §13, §2, §3, §4, §5, §6, §7, §8, §9, §10, §11, §12

[4] = test system: #820 E. faecium van A ST17; assay: Antibacterial assay (MIC), VRE strain #820, Enterococossel Broth, Example 1; type: cell-based, Enterococcus faecium; details: for MIC: Enterococcus faecium, read-out: 820 (minimum inhibitory concentration)
Protocol: as §1
(§14) #820 E. faecium van A ST17 #987 E. faecium van B ST39
as §2, §3, §4, §5, §6, §7, §8, §9, §10, §11, §12

[5] = test system: #987 E. faecium van B ST39; assay: Antibacterial assay (MIC), VRE strain #987, Enterococossel Broth, Example 1; type: cell-based, Enterococcus faecium; details: for MIC: Enterococcus faecium, read-out: 987 (minimum inhibitory concentration)
Protocol: as §1, §14, §2, §3, §4, §5, §6, §7, §8, §9, §10, §11, §12

[6] = Example 1 compounds, S. aureus ATCC 6538P, 24 hrs, 37° C., range if at least two of three values fell within it
[7] = Example 1 compounds, VRE #243 E. faecium van B, 24 hrs, 37° C.
[8] = Example 1 compounds, VRE #449 E. faecium van B, 24 hrs, 37° C.
[9] = Example 1 compounds, VRE #820 E. faecium van A, 24 hrs, 37° C.
[10] = Example 1 compounds, VRE #987 E. faecium van B, 24 hrs, 37° C.

SMILES | MIC [1, 6] | MIC [2, 7] | MIC [3, 8] | MIC [4, 9] | MIC [5, 10] | further results
CC(C)C[C@H](NC(=O)[C@@H](CCCNC(=N)N)NC(=O)[C@@H](CCCCN)NC(=O)COc1ccc2ccccc2c1-c1c(OCCc2ccccc2)ccc2ccccc12)C(=O)OCc1ccccc1.Cl.Cl (atropisomer, axis not shown) [Compound 28] | 0.99 to 15.6 µg/mL | 15.7 to 62.5 µg/mL | 15.7 to 62.5 µg/mL | 15.7 to 62.5 µg/mL | 15.7 to 62.5 µg/mL | –
C=CC[C@H](NC(=O)[C@@H](CCCNC(=N)N)NC(=O)[C@@H](CCCCN)NC(=O)COc1ccc2ccccc2c1-c1c(OCCC(C)C)ccc2ccccc12)C(=O)OCc1ccccc1.Cl.Cl (atropisomer, axis not shown) [Compound 29] | 0.99 to 15.6 µg/mL | 15.7 to 62.5 µg/mL | 0.99 to 15.6 µg/mL | 0.99 to 15.6 µg/mL | 15.7 to 62.5 µg/mL | –
Cl.Cl.NCCCC[C@@H](NC(=O)CCCOc1ccc2ccccc2c1-c1c(OCCCC(=O)N[C@H](CCCCN)C(=O)OCc2ccccc2)ccc2ccccc12)C(=O)OCc1ccccc1 (atropisomer, axis not shown) [Compound 34] | 0.99 to 15.6 µg/mL | > 62.6 µg/mL | 15.7 to 62.5 µg/mL | 15.7 to 62.5 µg/mL | > 62.6 µg/mL | –
Cl.Cl.NCCCC[C@@H](NC(=O)CCCOc1ccc2ccccc2c1-c1c(OCCCC(=O)N[C@H](CCCCN)C(=O)OCc2cccc3ccccc23)ccc2ccccc12)C(=O)OCc1cccc2ccccc12 (atropisomer, axis not shown) [Compound 35] | 0.99 to 15.6 µg/mL | > 62.6 µg/mL | > 62.6 µg/mL | 15.7 to 62.5 µg/mL | > 62.6 µg/mL | –
Cl.Cl.N=C(N)NCCCC[C@@H](NC(=O)CCCOc1ccc2ccccc2c1-c1c(OCCCC(=O)N[C@H](CCCCNC(=N)N)C(=O)OCc2ccccc2)ccc2ccccc12)C(=O)OCc1ccccc1 (atropisomer, axis not shown) [Compound 39] | 0.99 to 15.6 µg/mL | > 62.6 µg/mL | 15.7 to 62.5 µg/mL | 15.7 to 62.5 µg/mL | > 62.6 µg/mL | –
Cl.Cl.N=C(N)NCCCC[C@@H](NC(=O)CCCOc1ccc2ccccc2c1-c1c(OCCCC(=O)N[C@H](CCCCNC(=N)N)C(=O)Oc2cccc3ccccc23)ccc2ccccc12)C(=O)Oc1cccc2ccccc12 (atropisomer, axis not shown) [Compound 40] | 0.99 to 15.6 µg/mL | > 62.6 µg/mL | > 62.6 µg/mL | 15.7 to 62.5 µg/mL | > 62.6 µg/mL | –
C=CCOc1ccc2ccccc2c1-c1c(OCC(=O)N[C@H](CCCN)C(=O)Nc2cccc(C(=O)OC)c2)ccc2ccccc12.Cl (atropisomer, axis not shown) [Compound 41] | 0.99 to 15.6 µg/mL | > 62.6 µg/mL | > 62.6 µg/mL | > 62.6 µg/mL | > 62.6 µg/mL | –
C=CCOc1ccc2ccccc2c1-c1c(OCC(=O)N[C@H](CCCN)C(=O)Nc2cccc(C(=O)OCc3ccccc3)c2)ccc2ccccc12.Cl (atropisomer, axis not shown) [Compound 42] | 15.7 to 62.5 µg/mL | > 62.6 µg/mL | > 62.6 µg/mL | > 62.6 µg/mL | > 62.6 µg/mL | –
C=CCOc1ccc2ccccc2c1-c1c(OCC(=O)N[C@H](CCCNC(=N)N)C(=O)Nc2cccc(C(=O)OC)c2)ccc2ccccc12.Cl (atropisomer, axis not shown) [Compound 44] | 0.99 to 15.6 µg/mL | > 62.6 µg/mL | > 62.6 µg/mL | 15.7 to 62.5 µg/mL | > 62.6 µg/mL | –
C=CCOc1ccc2ccccc2c1-c1c(OCC(=O)N[C@H](CCCNC(=N)N)C(=O)Nc2cccc(C(=O)OCc3ccccc3)c2)ccc2ccccc12.Cl (atropisomer, axis not shown) [Compound 45] | 0.99 to 15.6 µg/mL | 15.7 to 62.5 µg/mL | 15.7 to 62.5 µg/mL | 15.7 to 62.5 µg/mL | 15.7 to 62.5 µg/mL | –
C=CCOc1ccc2ccccc2c1-c1c(OCC(=O)N[C@H](CCCNC(=N)N)C(=O)Nc2cccc(C(=O)NOCc3ccccc3)c2)ccc2ccccc12.Cl (atropisomer, axis not shown) [Compound 46] | 0.99 to 15.6 µg/mL | > 62.6 µg/mL | > 62.6 µg/mL | > 62.6 µg/mL | > 62.6 µg/mL | –
CCC(C)[C@H](NC(=O)[C@@H](CCCNC(=N)N)NC(=O)[C@@H](CCCCN)NC(=O)COc1ccc2ccccc2c1-c1c(OCCC(C)C)ccc2ccccc12)C(=O)OCc1ccccc1.Cl.Cl (stereo partly drawn) [Compound 3] | 0.99 to 15.6 µg/mL | 15.7 to 62.5 µg/mL | 15.7 to 62.5 µg/mL | 15.7 to 62.5 µg/mL | 15.7 to 62.5 µg/mL | –
CC(C)CCOc1ccccc1-c1ccccc1OCC(=O)N[C@H](CCCCN)C(=O)N[C@H](CCCNC(=N)N)C(=O)N[C@@H](CC(C)C)C(=O)OCc1ccccc1.Cl.Cl [Compound 11] | 0.99 to 15.6 µg/mL | 15.7 to 62.5 µg/mL | 15.7 to 62.5 µg/mL | 15.7 to 62.5 µg/mL | 15.7 to 62.5 µg/mL | –
C=CC[C@H](NC(=O)[C@@H](CCCNC(=N)N)NC(=O)[C@@H](CCCCN)NC(=O)COc1ccc2ccccc2c1-c1c(OCC(C)(C)C)ccc2ccccc12)C(=O)OCc1ccccc1 [Compound 27] | 0.99 to 15.6 µg/mL (≈ 1.12 to 17.6 µM) | 15.7 to 62.5 µg/mL (≈ 17.7 to 70.5 µM) | 15.7 to 62.5 µg/mL (≈ 17.7 to 70.5 µM) | 15.7 to 62.5 µg/mL (≈ 17.7 to 70.5 µM) | > 62.6 µg/mL | –
NCCCC[C@@H](NC(=O)CCCOc1ccc2ccccc2c1-c1c(OCCCC(=O)N[C@H](CCCCN)C(=O)OCc2ccccn2)ccc2ccccc12)C(=O)OCc1ccccn1 [Compound 36] | – | – | – | – | – | MIC ([1]; 24 h): > 62.6 µg/mL; MIC ([2]; VRE, 24 h): > 62.6 µg/mL; MIC ([3]; VRE, 24 h): > 62.6 µg/mL; MIC ([4]; VRE, 24 h): > 62.6 µg/mL; MIC ([5]; VRE, 24 h): > 62.6 µg/mL
N=C(N)NCCC[C@@H](NC(=O)CCCOc1ccc2ccccc2c1-c1c(OCCCC(=O)N[C@H](CCCNC(=N)N)C(=O)OCc2ccccn2)ccc2ccccc12)C(=O)OCc1ccccn1 [Compound 37] | 0.99 to 15.6 µg/mL (≈ 1.04 to 16.4 µM) | > 62.6 µg/mL | > 62.6 µg/mL | > 62.6 µg/mL | > 62.6 µg/mL | –
C=CCOc1ccc2ccccc2c1-c1c(OCC(=O)N[C@H](CCCN)C(=O)Nc2cccc(C(=O)NOCc3ccccc3)c2)ccc2ccccc12 [Compound 43] | 0.99 to 15.6 µg/mL (≈ 1.37 to 21.6 µM) | > 62.6 µg/mL | > 62.6 µg/mL | 15.7 to 62.5 µg/mL (≈ 21.7 to 86.5 µM) | > 62.6 µg/mL | –
COC(=O)[C@H]1CC=CCOc2ccc(cc2)C[C@H](NC(C)=O)C(=O)N[C@@H](CCCN=C(N)NS(=O)(=O)c2c(C)c(C)c3c(c2C)CCC(C)(C)O3)C(=O)N1 [Compound 47] | – | – | – | – | – | Sa (minimum inhibitory concentration) [1, 6]: +++ (MIC of the compound in the range of greater than or equal to 0.99 (μg/ml) and less than or equal to 15.6 (μg/ml)); 243 (minimum inhibitory concentration) [2, 7]: + (MIC of the compound in the range of greater than or equal to 62.6 (μg/ml)); 449 (minimum inhibitory concentration) [3, 8]: + (MIC of the compound in the range of greater than or equal to 62.6 (μg/ml)); 820 (minimum inhibitory concentration) [4, 9]: + (MIC of the compound in the range of greater than or equal to 62.6 (μg/ml)); 987 (minimum inhibitory concentration) [5, 10]: + (MIC of the compound in the range of greater than or equal to 62.6 (μg/ml))
